Measured values published in patent US10533018B2, “Antimicrobial prochelators to target drug-resistant bacteria and methods of making and using the same” (Duke University, priority 2015, dated 2020).

Experiments:
[1] = Zinpyr-1 fluorescence assay; assay type: physicochemical
Procedure: Lanes three and four contain 100 μM DB4-51 and 0.5 units/ml β-lactamase respectively and confirm these molecules are innocent in the fluorescence of zinpyr-1. Lane five contains 100 μM DB4-51 and 0.5 units/ml β-lactamase.

mammalian cells = test: LC-MS of spent mammalian cell culture medium; assay type: in vitro ADME; conditions: spent cell culture medium of cytotoxicity assay; after 4 hours
Procedure: Suspecting that the cytotoxicity apparent at high concentrations of DB4-51 in the mammalian cells may be due to PT released by non-specific hydrolysis of DB4-51, we analyzed the spent cell culture medium used for the cytotoxicity assay by LC-MS and found 50-60% loss of detectable, intact prochelator compared to the non-incubated controls after 4 hours.

## O=C(Cc1ccccc1)N[C@@H]1C(=O)N2C(C(=O)O)=C(CSc3cccc[n+]3[O-])CS[C@H]12 [DB4-51, 2-((((6R,7R)-2-carboxy-8-oxo-7-(2-phenylacetamido)-5-thia-1-azabicyclo[4.2.0]oct-2-en-3-yl)methyl)thio)pyridine 1-oxide]
[1]; 100 μM + 0.5 units/ml β-lactamase
  decrease of Zn-zinpyr-1 fluorescence: more than 50%
[1]; 400 equivalents (100 μM), no β-lactamase
  Zn-zinpyr-1 fluorescence on addition of compound: unaffected
Mammalian cells
  loss of detectable, intact prochelator vs non-incubated controls: 50-60%
